Data published in patent publication US20250230193A1, “CYCLIC COMPOUND HAVING SELECTIVE KRAS INHIBITORY EFFECT ON HRAS AND NRAS” (CHUGAI SEIYAKU KABUSHIKI KAISHA, priority 2022, published 2025).
Where a SMILES comes first, the peptide text is derived from it. Bridges are numbered along the chain shown (N, C = ends). [ ]: non-standard residue; d: D form. hPhe(3-Cl-4-CF3) = N[C@@H](CCc1ccc(C(F)(F)F)c(Cl)c1)C(=O)O; NPrPhe(4-CF3) = CCCN[C@@H](Cc1ccc(C(F)(F)F)cc1)C(=O)O; NMeGly(cPent) = CN[C@H](C(=O)O)C1CCCC1; Pro(4,4-F2) = O=C(O)[C@@H]1CC(F)(F)CN1; Hyp = O=C(O)[C@@H]1C[C@@H](O)CN1; NMeL = CN[C@@H](CC(C)C)C(=O)O; Ac5c = NC1(C(=O)O)CCCC1; Aze = O=C(O)[C@@H]1CCN1; Ac4c = NC1(C(=O)O)CCC1; NEtG = CCNCC(=O)O; Sar = CNCC(=O)O

Columns and labels:
[1] = target: GDP-bound HRAS wild-type protein (Homo sapiens, UniProt P01112); experiment: Binding to HRAS by surface plasmon resonance (SPR), Single Cycle Kinetics; conditions: KD ratio HRAS/KRAS, SPR
[2] = target: GDP-bound NRAS wild-type protein (Homo sapiens, UniProt P01111); experiment: Binding to NRAS by surface plasmon resonance (SPR), Single Cycle Kinetics; conditions: KD ratio NRAS/KRAS, SPR
Chain of GDP-bound NRAS wild-type protein (P01111 whole entry): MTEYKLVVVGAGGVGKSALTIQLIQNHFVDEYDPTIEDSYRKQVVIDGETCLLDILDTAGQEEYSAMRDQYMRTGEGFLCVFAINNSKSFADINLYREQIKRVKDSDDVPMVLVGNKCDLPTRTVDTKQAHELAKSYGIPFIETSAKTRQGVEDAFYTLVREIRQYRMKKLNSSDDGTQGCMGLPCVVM

Chain of GDP-bound HRAS wild-type protein (P01112 whole entry): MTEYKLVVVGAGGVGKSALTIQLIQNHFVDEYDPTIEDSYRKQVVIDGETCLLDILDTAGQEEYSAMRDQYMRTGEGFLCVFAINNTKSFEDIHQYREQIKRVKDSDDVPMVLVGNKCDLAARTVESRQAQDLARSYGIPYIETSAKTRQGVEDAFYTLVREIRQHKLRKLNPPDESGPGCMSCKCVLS

| Compound | HRAS/KRAS (ratio of KD for GDP-bound HRAS wild-type to KD for KRAS) [1] | NRAS/KRAS (ratio of KD for GDP-bound NRAS wild-type to KD for KRAS) [2] |
| --- | --- | --- |
| CCCN1C(=O)CN(C)C(=O)CNC(=O)[C@H]([C@@H](C)CC)NC(=O)[C@H](CC(C)C)N(C)C(=O)C[C@@H](C(=O)N(C)C)NC(=O)[C@H](C2CCCC2)N(C)C(=O)C2(CCCC2)NC(=O)[C@@H]2CC(F)(F)CN2C(=O)[C@H](CCc2ccc(C(F)(F)F)c(Cl)c2)NC(=O)CN(C)C(=O)[C@@H]1Cc1ccc(C(F)(F)F)cc1 [PP0363] ([NMeL]IG[Sar][NPrPhe(4-CF3)][Sar][hPhe(3-Cl-4-CF3)][Pro(4,4-F2)][Ac5c][NMeGly(cPent)]D-NMe2; lactam N-11) | C (A compound having a KD ratio of 0.1 or more and less than 3 is denoted as C) | B (a compound having 3 or more and less than 10 is denoted as B) |
| CCCN1C(=O)CN(C)C(=O)CNC(=O)[C@H]([C@@H](C)CC)NC(=O)[C@H](CC(C)C)N(C)C(=O)C[C@@H](C(=O)N(C)C)NC(=O)[C@H](C2CCCC2)N(C)C(=O)C2(CCC2)NC(=O)[C@@H]2CC(F)(F)CN2C(=O)[C@H](CCc2ccc(C(F)(F)F)c(Cl)c2)NC(=O)CN(C)C(=O)[C@@H]1Cc1ccc(C(F)(F)F)cc1 [PP0364] ([NMeL]IG[Sar][NPrPhe(4-CF3)][Sar][hPhe(3-Cl-4-CF3)][Pro(4,4-F2)][Ac4c][NMeGly(cPent)]D-NMe2; lactam N-11) | B (a compound having 3 or more and less than 10 is denoted as B) | B (a compound having 3 or more and less than 10 is denoted as B) |
| CCCN1C(=O)CN(C)C(=O)CNC(=O)[C@H]([C@@H](C)CC)NC(=O)[C@H](CC(C)C)N(C)C(=O)C[C@@H](C(=O)N(C)C)NC(=O)[C@H](C2CCCC2)N(C)C(=O)C2(CCCC2)NC(=O)[C@@H]2C[C@@H](OCC)CN2C(=O)[C@H](CCc2ccc(C(F)(F)F)c(Cl)c2)NC(=O)CN(C)C(=O)[C@@H]1Cc1ccc(C(F)(F)F)cc1 [PP0365] ([NMeL]IG[Sar][NPrPhe(4-CF3)][Sar][hPhe(3-Cl-4-CF3)][Hyp](Et)[Ac5c][NMeGly(cPent)]D-NMe2; lactam N-11) | B (a compound having 3 or more and less than 10 is denoted as B) | B (a compound having 3 or more and less than 10 is denoted as B) |
| CCCN1C(=O)CN(C)C(=O)CNC(=O)[C@H]([C@@H](C)CC)NC(=O)[C@H](CC(C)C)N(C)C(=O)C[C@@H](C(=O)N(C)C)NC(=O)[C@H](C2CCCC2)N(C)C(=O)C2(CCC2)NC(=O)[C@@H]2C[C@@H](OCC)CN2C(=O)[C@H](CCc2ccc(C(F)(F)F)c(Cl)c2)NC(=O)CN(C)C(=O)[C@@H]1Cc1ccc(C(F)(F)F)cc1 [PP0366] ([NMeL]IG[Sar][NPrPhe(4-CF3)][Sar][hPhe(3-Cl-4-CF3)][Hyp](Et)[Ac4c][NMeGly(cPent)]D-NMe2; lactam N-11) | B (a compound having 3 or more and less than 10 is denoted as B) | B (a compound having 3 or more and less than 10 is denoted as B) |
| CCCN1C(=O)CN(C)C(=O)CN(CC)C(=O)[C@H]([C@@H](C)CC)NC(=O)[C@H](CC(C)C)N(C)C(=O)C[C@@H](C(=O)N(C)C)NC(=O)[C@H](C2CCCC2)N(C)C(=O)C2(CCCC2)NC(=O)[C@@H]2CCCN2C(=O)[C@H](CCc2ccc(C(F)(F)F)c(Cl)c2)NC(=O)CN(C)C(=O)[C@@H]1Cc1ccc(C(F)(F)F)cc1 [PP0367] ([NMeL]I[NEtG][Sar][NPrPhe(4-CF3)][Sar][hPhe(3-Cl-4-CF3)]P[Ac5c][NMeGly(cPent)]D-NMe2; lactam N-11) | B (a compound having 3 or more and less than 10 is denoted as B) | B (a compound having 3 or more and less than 10 is denoted as B) |
| CCCN1C(=O)CN(C)C(=O)CN(CC)C(=O)[C@H]([C@@H](C)CC)NC(=O)[C@H](CC(C)C)N(C)C(=O)C[C@@H](C(=O)N(C)C)NC(=O)[C@H](C2CCCC2)N(C)C(=O)C2(CCC2)NC(=O)[C@@H]2CCCN2C(=O)[C@H](CCc2ccc(C(F)(F)F)c(Cl)c2)NC(=O)CN(C)C(=O)[C@@H]1Cc1ccc(C(F)(F)F)cc1 [PP0368] ([NMeL]I[NEtG][Sar][NPrPhe(4-CF3)][Sar][hPhe(3-Cl-4-CF3)]P[Ac4c][NMeGly(cPent)]D-NMe2; lactam N-11) | B (a compound having 3 or more and less than 10 is denoted as B) | B (a compound having 3 or more and less than 10 is denoted as B) |
| CCCN1C(=O)CN(C)C(=O)CN(CC)C(=O)[C@H]([C@@H](C)CC)NC(=O)[C@H](CC(C)C)N(C)C(=O)C[C@@H](C(=O)N(C)C)NC(=O)[C@H](C2CCCC2)N(C)C(=O)C2(CCCC2)NC(=O)[C@@H]2CC(F)(F)CN2C(=O)[C@H](CCc2ccc(C(F)(F)F)c(Cl)c2)NC(=O)CN(C)C(=O)[C@@H]1Cc1ccc(C(F)(F)F)cc1 [PP0369] ([NMeL]I[NEtG][Sar][NPrPhe(4-CF3)][Sar][hPhe(3-Cl-4-CF3)][Pro(4,4-F2)][Ac5c][NMeGly(cPent)]D-NMe2; lactam N-11) | C (A compound having a KD ratio of 0.1 or more and less than 3 is denoted as C) | B (a compound having 3 or more and less than 10 is denoted as B) |
| CCCN1C(=O)CN(C)C(=O)CN(CC)C(=O)[C@H]([C@@H](C)CC)NC(=O)[C@H](CC(C)C)N(C)C(=O)C[C@@H](C(=O)N(C)C)NC(=O)[C@H](C2CCCC2)N(C)C(=O)C2(CCC2)NC(=O)[C@@H]2CC(F)(F)CN2C(=O)[C@H](CCc2ccc(C(F)(F)F)c(Cl)c2)NC(=O)CN(C)C(=O)[C@@H]1Cc1ccc(C(F)(F)F)cc1 [PP0370] ([NMeL]I[NEtG][Sar][NPrPhe(4-CF3)][Sar][hPhe(3-Cl-4-CF3)][Pro(4,4-F2)][Ac4c][NMeGly(cPent)]D-NMe2; lactam N-11) | C (A compound having a KD ratio of 0.1 or more and less than 3 is denoted as C) | B (a compound having 3 or more and less than 10 is denoted as B) |
| CCCN1C(=O)CN(C)C(=O)CN(CC)C(=O)[C@H]([C@@H](C)CC)NC(=O)[C@H](CC(C)C)N(C)C(=O)C[C@@H](C(=O)N(C)C)NC(=O)[C@H](C2CCCC2)N(C)C(=O)C2(CCCC2)NC(=O)[C@@H]2C[C@@H](OCC)CN2C(=O)[C@H](CCc2ccc(C(F)(F)F)c(Cl)c2)NC(=O)CN(C)C(=O)[C@@H]1Cc1ccc(C(F)(F)F)cc1 [PP0371] ([NMeL]I[NEtG][Sar][NPrPhe(4-CF3)][Sar][hPhe(3-Cl-4-CF3)][Hyp](Et)[Ac5c][NMeGly(cPent)]D-NMe2; lactam N-11) | C (A compound having a KD ratio of 0.1 or more and less than 3 is denoted as C) | B (a compound having 3 or more and less than 10 is denoted as B) |
| CCCN1C(=O)CN(C)C(=O)CN(CC)C(=O)[C@H]([C@@H](C)CC)NC(=O)[C@H](CC(C)C)N(C)C(=O)C[C@@H](C(=O)N(C)C)NC(=O)[C@H](C2CCCC2)N(C)C(=O)C2(CCC2)NC(=O)[C@@H]2C[C@@H](OCC)CN2C(=O)[C@H](CCc2ccc(C(F)(F)F)c(Cl)c2)NC(=O)CN(C)C(=O)[C@@H]1Cc1ccc(C(F)(F)F)cc1 [PP0372] ([NMeL]I[NEtG][Sar][NPrPhe(4-CF3)][Sar][hPhe(3-Cl-4-CF3)][Hyp](Et)[Ac4c][NMeGly(cPent)]D-NMe2; lactam N-11) | B (a compound having 3 or more and less than 10 is denoted as B) | B (a compound having 3 or more and less than 10 is denoted as B) |
| CCCN1C(=O)CN(C)C(=O)[C@@H]2CCN2C(=O)[C@H]([C@@H](C)CC)NC(=O)[C@H](CC(C)C)N(C)C(=O)C[C@@H](C(=O)N(C)C)NC(=O)[C@H](C2CCCC2)N(C)C(=O)C2(CCCC2)NC(=O)[C@@H]2CCCN2C(=O)[C@H](CCc2ccc(C(F)(F)F)c(Cl)c2)NC(=O)CN(C)C(=O)[C@@H]1Cc1ccc(C(F)(F)F)cc1 [PP0373] ([NMeL]I[Aze][Sar][NPrPhe(4-CF3)][Sar][hPhe(3-Cl-4-CF3)]P[Ac5c][NMeGly(cPent)]D-NMe2; lactam N-11) | B (a compound having 3 or more and less than 10 is denoted as B) | B (a compound having 3 or more and less than 10 is denoted as B) |
| CCCN1C(=O)CN(C)C(=O)[C@@H]2CCN2C(=O)[C@H]([C@@H](C)CC)NC(=O)[C@H](CC(C)C)N(C)C(=O)C[C@@H](C(=O)N(C)C)NC(=O)[C@H](C2CCCC2)N(C)C(=O)C2(CCC2)NC(=O)[C@@H]2CCCN2C(=O)[C@H](CCc2ccc(C(F)(F)F)c(Cl)c2)NC(=O)CN(C)C(=O)[C@@H]1Cc1ccc(C(F)(F)F)cc1 [PP0374] ([NMeL]I[Aze][Sar][NPrPhe(4-CF3)][Sar][hPhe(3-Cl-4-CF3)]P[Ac4c][NMeGly(cPent)]D-NMe2; lactam N-11) | B (a compound having 3 or more and less than 10 is denoted as B) | B (a compound having 3 or more and less than 10 is denoted as B) |
| CCCN1C(=O)CN(C)C(=O)[C@@H]2CCN2C(=O)[C@H]([C@@H](C)CC)NC(=O)[C@H](CC(C)C)N(C)C(=O)C[C@@H](C(=O)N(C)C)NC(=O)[C@H](C2CCCC2)N(C)C(=O)C2(CCCC2)NC(=O)[C@@H]2CC(F)(F)CN2C(=O)[C@H](CCc2ccc(C(F)(F)F)c(Cl)c2)NC(=O)CN(C)C(=O)[C@@H]1Cc1ccc(C(F)(F)F)cc1 [PP0375] ([NMeL]I[Aze][Sar][NPrPhe(4-CF3)][Sar][hPhe(3-Cl-4-CF3)][Pro(4,4-F2)][Ac5c][NMeGly(cPent)]D-NMe2; lactam N-11) | B (a compound having 3 or more and less than 10 is denoted as B) | B (a compound having 3 or more and less than 10 is denoted as B) |
